From patent US20120220562A1, “Anti-Viral Compounds” (ABBOTT LABAORATORIES, priority 2011, published 2012)
pEC50: −log10 of the molar value.

What follows are compounds tested on HCV 1b-Con1 replicon (assay: HCV 1b-Con1 replicon assay in the presence of 5% FBS). Conditions: Hepatitis C virus.
Type: cell-based

| SMILES | pEC50 |
| --- | --- |
| COC(=O)N[C@H](C(=O)N1CCC[C@H]1c1nc2cc([C@H]3CC[C@H](c4ccc5[nH]c([C@@H]6CCCN6C(=O)[C@@H](NC(=O)OC)C(C)C)nc5c4)N3c3ccc(OC4COCOC4)cc3)ccc2[nH]1)C(C)C [Example 2.3, methyl {(2S)-1-[(2S)-2-{5-[(2R,5R)-1-[4-(1,3-dioxan-5-yloxy)phenyl]-5-{2-[(2S)-1-{(2S)-2-[(methoxycarbonyl)amino]-3-methylbutanoyl}pyrrolidin-2-yl]-1H-benzimidazol-5-yl}pyrrolidin-2-yl]-1H-benzimidazol-2-yl}pyrrolidin-1-yl]-3-methyl-1-oxobutan-2-yl}carbamate] | 8.00 to 9.00 |
| COC(=O)N[C@H](C(=O)N1CCC[C@H]1c1nc2ccc([C@H]3CC[C@H](c4ccc5nc([C@@H]6CCCN6C(=O)[C@@H](NC(=O)OC)C(C)C)[nH]c5c4)N3c3cc(F)c(N4CCC(c5ccc(OC)cc5)CC4)c(F)c3)cc2[nH]1)C(C)C [Example 4.34, methyl {(2S)-1-[(2S)-2-{6-[(2R,5R)-1-{3,5-difluoro-4-[4-(4-methoxyphenyl)piperidin-1-yl]phenyl}-5-{2-[(2S)-1-{(2S)-2-[(methoxycarbonyl)amino]-3-methylbutanoyl}pyrrolidin-2-yl]-1H-benzimidazol-6-yl}pyrrolidin-2-yl]-1H-benzimidazol-2-yl}pyrrolidin-1-yl]-3-methyl-1-oxobutan-2-yl}carbamate] | > 10.00 |
| COC(=O)N[C@H](C(=O)N1CCC[C@H]1c1nc2cc([C@H]3CC[C@@H](c4ccc5[nH]c([C@@H]6CCCN6C(=O)[C@@H](NC(=O)OC)C(C)C)nc5c4)N3c3cc(F)c(C(F)(F)F)cc3F)ccc2[nH]1)C(C)C [Example 1.3, methyl {(2S)-1-[(2S)-2-{5-[(2S,5R)-1-[2,5-difluoro-4-(trifluoromethyl)phenyl]-5-{2-[(2S)-1-{(2S)-2-[(methoxycarbonyl)amino]-3-methylbutanoyl}pyrrolidin-2-yl]-1H-benzimidazol-5-yl}pyrrolidin-2-yl]-1H-benzimidazol-2-yl}pyrrolidin-1-yl]-3-methyl-1-oxobutan-2-yl}carbamate] | > 10.00 |
| COC(=O)N[C@H](C(=O)N1CCC[C@H]1c1nc2ccc([C@H]3CC[C@H](c4ccc5nc([C@@H]6CCCN6C(=O)[C@@H](NC(=O)OC)C(C)C)[nH]c5c4)N3c3cc(F)c(C4CC4)c(F)c3)cc2[nH]1)C(C)C [Example 4.15, methyl {(2S)-1-[(2S)-2-{6-[(2R,5R)-1-(4-cyclopropyl-3,5-difluorophenyl)-5-{2-[(2S)-1-{(2S)-2-[(methoxycarbonyl)amino]-3-methylbutanoyl}pyrrolidin-2-yl]-1H-benzimidazol-6-yl}pyrrolidin-2-yl]-1H-benzimidazol-2-yl}pyrrolidin-1-yl]-3-methyl-1-oxobutan-2-yl}carbamate] | > 10.00 |
| COC(=O)N[C@H](C(=O)N1CCC[C@H]1c1nc2cc([C@H]3CC[C@H](c4ccc5[nH]c([C@@H]6CCCN6C(=O)[C@@H](NC(=O)OC)C(C)C)nc5c4)N3c3cc(F)c(N4CCC(C(F)(F)F)CC4)c(F)c3)ccc2[nH]1)C(C)C [Example 5.8, methyl {(2S)-1-[(2S)-2-{5-[(2R,5R)-1-{3,5-difluoro-4-[4-(trifluoromethyl)piperidin-1-yl]phenyl}-5-{2-[(2S)-1-{(2S)-2-[(methoxycarbonyl)amino]-3-methylbutanoyl}pyrrolidin-2-yl]-1H-benzimidazol-5-yl}pyrrolidin-2-yl]-1H-benzimidazol-2-yl}pyrrolidin-1-yl]-3-methyl-1-oxobutan-2-yl}carbamate] | > 10.00 |
| COC(=O)N[C@H](C(=O)N1CCC[C@H]1c1nc2cc([C@H]3CC[C@H](c4ccc5[nH]c([C@@H]6CCCN6C(=O)[C@@H](NC(=O)OC)C(C)C)nc5c4)N3c3cc(F)c(N4CCC(c5ccc(F)cc5)CC4)c(F)c3)ccc2[nH]1)C(C)C [Example 3.42, methyl {(2S)-1-[(2S)-2-{5-[(2R,5R)-1-{3,5-difluoro-4-[4-(4-fluorophenyl)piperidin-1-yl]phenyl}-5-{2-[(2S)-1-{(2S)-2-[(methoxycarbonyl)amino]-3-methylbutanoyl}pyrrolidin-2-yl]-1H-benzimidazol-5-yl}pyrrolidin-2-yl]-1H-benzimidazol-2-yl}pyrrolidin-1-yl]-3-methyl-1-oxobutan-2-yl}carbamate] | > 10.00 |
| COC(=O)N[C@H](C(=O)N1CCC[C@H]1c1nc2cc([C@H]3CC[C@H](c4ccc5[nH]c([C@@H]6CCCN6C(=O)[C@@H](NC(=O)OC)C(C)C)nc5c4)N3c3ccc(-c4ccccc4)cc3)ccc2[nH]1)C(C)C [Example 3.5, methyl {(2S)-1-[(2S)-2-{5-[(2R,5R)-1-(biphenyl-4-yl)-5-{2-[(2S)-1-{(2S)-2-[(methoxycarbonyl)amino]-3-methylbutanoyl}pyrrolidin-2-yl]-1H-benzimidazol-5-yl}pyrrolidin-2-yl]-1H-benzimidazol-2-yl}pyrrolidin-1-yl]-3-methyl-1-oxobutan-2-yl}carbamate] | > 10.00 |
| COC(=O)N[C@H](C(=O)N1CCC[C@H]1c1nc2cc(C3CCC(c4cc5nc([C@@H]6CCCN6C(=O)[C@@H](NC(=O)OC)C(C)C)[nH]c5cc4F)N3c3cc(F)c(N4C[C@@H](C)O[C@@H](C)C4)c(F)c3)c(F)cc2[nH]1)C(C)C (stereo partly drawn) [Example 4.51] | > 10.00 |
| COC(=O)N[C@H](C(=O)N1CCC[C@H]1c1nc2cc([C@H]3CC[C@H](c4cc5nc([C@@H]6CCCN6C(=O)[C@@H](NC(=O)OC)C(C)C)[nH]c5cc4F)N3c3cc(F)c(N4CCC5(CCc6ccccc65)CC4)c(F)c3)c(F)cc2[nH]1)C(C)C [Example 4.31, methyl {(2S)-1-[(2S)-2-{5-[(2R,5R)-1-[4-(2,3-dihydro-1′H-spiro[indene-1,4′-piperidin]-1′-yl)-3,5-difluorophenyl]-5-{6-fluoro-2-[(2S)-1-{(2S)-2-[(methoxycarbonyl)amino]-3-methylbutanoyl}pyrrolidin-2-yl]-1H-benzimidazol-5-yl}pyrrolidin-2-yl]-6-fluoro-1H-benzimidazol-2-yl}pyrrolidin-1-yl]-3-methyl-1-oxobutan-2-yl}carbamate] | > 10.00 |
| CCC1(COc2c(F)cc(N3[C@@H](c4ccc5nc([C@@H]6CCCN6C(=O)[C@@H](NC(=O)OC)C(C)C)[nH]c5c4)CC[C@@H]3c3ccc4nc([C@@H]5CCCN5C(=O)[C@@H](NC(=O)OC)C(C)C)[nH]c4c3)cc2F)COC1 [Example 2.5, methyl {(2S)-1-[(2S)-2-{6-[(2R,5R)-1-{4-[(3-ethyloxetan-3-yl)methoxy]-3,5-difluorophenyl}-5-{2-[(2S)-1-{(2S)-2-[(methoxycarbonyl)amino]-3-methylbutanoyl}pyrrolidin-2-yl]-1H-benzimidazol-6-yl}pyrrolidin-2-yl]-1H-benzimidazol-2-yl}pyrrolidin-1-yl]-3-methyl-1-oxobutan-2-yl}carbamate] | > 10.00 |
| COC(=O)N[C@H](C(=O)N1CCC[C@H]1c1nc2cc([C@@H]3CC[C@@H](c4ccc5[nH]c([C@@H]6CCCN6C(=O)[C@@H](NC(=O)OC)[C@@H](C)OC)nc5c4)N3c3ccc(N4CCCCC4)c(F)c3)ccc2[nH]1)[C@@H](C)OC [Example 3.16, methyl {(2S,3R)-1-[(2S)-2-{5-[(2S,5S)-1-[3-fluoro-4-(piperidin-1-yl)phenyl]-5-(2-{(2S)-1-[N-(methoxycarbonyl)-O-methyl-L-threonyl]pyrrolidin-2-yl}-1H-benzimidazol-5-yl)pyrrolidin-2-yl]-1H-benzimidazol-2-yl}pyrrolidin-1-yl]-3-methoxy-1-oxobutan-2-yl}carbamate] | 9.00 to 10.00 |
| COC(=O)N[C@H](C(=O)N1CCC[C@H]1c1nc2c(C)c([C@H]3CC[C@@H](c4ccc5[nH]c([C@@H]6CCCN6C(=O)[C@@H](NC(=O)OC)C(C)C)nc5c4C)N3c3ccc(C(C)(C)C)cc3)ccc2[nH]1)C(C)C [Example 6.8, methyl {(2S)-1-[(2S)-2-{5-[(2R,5S)-1-(4-tert-butylphenyl)-5-{2-[(2S)-1-{(2S)-2-[(methoxycarbonyl)amino]-3-methylbutanoyl}pyrrolidin-2-yl]-4-methyl-1H-benzimidazol-5-yl}pyrrolidin-2-yl]-4-methyl-1H-benzimidazol-2-yl}pyrrolidin-1-yl]-3-methyl-1-oxobutan-2-yl}carbamate] | > 10.00 |
| COC(=O)N[C@H](C(=O)N1CCC[C@H]1c1nc2cc([C@H]3CC[C@H](c4ccc5[nH]c([C@@H]6CCCN6C(=O)[C@@H](NC(=O)OC)C(C)C)nc5c4)N3c3ccc(-c4ncco4)cc3)ccc2[nH]1)C(C)C [Example 2.1, methyl {(2S)-1-[(2S)-2-(5-{(2R,5R)-5-{2-[(2S)-1-{(2S)-2-[(methoxycarbonyl)amino]-3-methylbutanoyl}pyrrolidin-2-yl]-1H-benzimidazol-5-yl}-1-[4-(1,3-oxazol-2-yl)phenyl]pyrrolidin-2-yl}-1H-benzimidazol-2-yl)pyrrolidin-1-yl]-3-methyl-1-oxobutan-2-yl}carbamate] | > 10.00 |
| COC(=O)N[C@H](C(=O)N1CCC[C@H]1c1nc2cc([C@H]3CC[C@H](c4cc5nc([C@@H]6CCCN6C(=O)[C@@H](NC(=O)OC)[C@@H](C)OC(C)(C)C)[nH]c5cc4F)N3c3cc(F)c(N4CCC(C(C)(C)C)CC4)c(F)c3)c(F)cc2[nH]1)[C@@H](C)OC(C)(C)C [Example 4.29, methyl {(2S,3R)-3-tert-butoxy-1-[(2S)-2-(5-{(2R,5R)-5-{2-[(2S)-1-{(2S,3R)-3-tert-butoxy-2-[(methoxycarbonyl)amino]butanoyl}pyrrolidin-2-yl]-6-fluoro-1H-benzimidazol-5-yl}-1-[4-(4-tert-butylpiperidin-1-yl)-3,5-difluorophenyl]pyrrolidin-2-yl}-6-fluoro-1H-benzimidazol-2-yl)pyrrolidin-1-yl]-1-oxobutan-2-yl}carbamate] | > 10.00 |
| COC(=O)N[C@H](C(=O)N1CCC[C@H]1c1nc2cc([C@H]3CC[C@H](c4ccc5[nH]c([C@@H]6CCCN6C(=O)[C@@H](NC(=O)OC)C(C)C)nc5c4)N3c3cc(F)c(N4Cc5ccccc5C4)c(F)c3)ccc2[nH]1)C(C)C [Example 5.13, methyl {(2S)-1-[(2S)-2-{5-[(2R,5R)-1-[4-(1,3-dihydro-2H-isoindol-2-yl)-3,5-difluorophenyl]-5-{2-[(2S)-1-{(2S)-2-[(methoxycarbonyl)amino]-3-methylbutanoyl}pyrrolidin-2-yl]-1H-benzimidazol-5-yl}pyrrolidin-2-yl]-1H-benzimidazol-2-yl}pyrrolidin-1-yl]-3-methyl-1-oxobutan-2-yl}carbamate] | > 10.00 |
